Earlier results as cited in US20210319872A1, “DRUG AND DEVICE COMBINATION PRODUCTS WITH IMPROVED SAFETY AND EFFICACY PROFILES” (priority 2016, published 2021).
Read-outs that look alike come from different tables or passages of the source.

[1] = nonvalvular atrial fibrillation

In the case of `CN(C)CCC[C@@]1(c2ccc(F)cc2)OCc2cc(C#N)ccc21` [Escitalopram (Lexapro)], the Abdominal pain (in vivo) is listed as “Gastrointestinal: Abdominal pain (2%), Constipation (3% to 6%),”, the Constipation (in vivo) is listed as “Gastrointestinal: Abdominal pain (2%), Constipation (3% to 6%),” and the Diaphoresis (in vivo) is listed as “Dermatologic: Diaphoresis (3% to 8%)”. The Diarrhea (in vivo) was “Diarrhea (6% to 14%), Indigestion (2% to 6%), Nausea (15% to”, the Disorder of ejaculation (in vivo) was “Reproductive: Disorder of ejaculation (9% to 14%), Erectile” and the Dizziness (in vivo) was “Neurologic: Dizziness (4% to 7%), Headache (24%), Insomnia (7%”. For the same molecule, the Erectile dysfunction (in vivo) was “dysfunction (3%), Orgasm incapacity (females, 2% to 6%),”, the Fatigue (in vivo) was “Other: Fatigue (5% to 8%)” and the Headache (in vivo) was “Neurologic: Dizziness (4% to 7%), Headache (24%), Insomnia (7%”. For the same molecule, the Indigestion (in vivo) was “Diarrhea (6% to 14%), Indigestion (2% to 6%), Nausea (15% to”, the Insomnia (in vivo) was “Neurologic: Dizziness (4% to 7%), Headache (24%), Insomnia (7%” and the Orgasm incapacity (in vivo) was “dysfunction (3%), Orgasm incapacity (females, 2% to 6%),”. The Reduced libido (in vivo) was “Reduced libido (3% to 7%)”, the Somnolence (in vivo) was “to 14%), Somnolence (4% to 13%)” and the Vomiting (in vivo) was ≤ 18%), Vomiting (up to 3%), Xerostomia (4% to 9%). For the same molecule, the Xerostomia (in vivo) was 18%), Vomiting (up to 3%), Xerostomia (4% to 9%).

For `CN(CCOc1ccc(NS(C)(=O)=O)cc1)CCc1ccc(NS(C)(=O)=O)cc1` [Tikosyn], the Chest pain (in vivo) is listed as “Cardiovascular: Chest pain (10%)”, the Dizziness (in vivo) is listed as “Neurologic: Dizziness (8%), Headache (11%)” and the Headache (in vivo) is listed as “Neurologic: Dizziness (8%), Headache (11%)”. The Heart block (in vivo) was “Cardiovascular: Heart block (up to 1.2%), Prolonged QT interval,”, the Torsades de pointes (in vivo) was “Torsades de pointes (0.8%), Ventricular arrhythmia (up to 14.5%),” and the Ventricular arrhythmia (in vivo) was “Torsades de pointes (0.8%), Ventricular arrhythmia (up to 14.5%),”. For the same molecule, the Ventricular tachycardia (in vivo) was ≤ 12.4%) and the “Serious side effect, Cardiovascular” value (listed without frequency) was “Cardiovascular: Heart block (up to 1.2%), Prolonged QT interval,”.

In the case of `OCCOCCN1CCN(C2=Nc3ccccc3Sc3ccccc32)CC1` [Seroquel (Quetiapine)], the Abdominal pain (in vivo) is listed as “Gastrointestinal: Abdominal pain (3% to 7%), Constipation (2% to”, the Agitation (in vivo) is listed as “Psychiatric: Agitation (6% to 20%)” and the Asthenia (in vivo) is listed as “Neurologic: Asthenia (Up to 10%), Dizziness (8% to 19%),”. The Backache (in vivo) was “Musculoskeletal: Backache (3% to 5%)”, the Dizziness (in vivo) was “Neurologic: Asthenia (Up to 10%), Dizziness (8% to 19%),” and the Extrapyramidal disease (in vivo) was “Extrapyramidal disease (1.1% to 12.9%), Headache (17% to 21%),”. For the same molecule, the Fatigue (in vivo) was “Other: Fatigue (3% to 14%), Pain (7%)”, the Headache (in vivo) was “Extrapyramidal disease (1.1% to 12.9%), Headache (17% to 21%),” and the Increased appetite (in vivo) was 11%), Increased appetite (2% to 12%), Indigestion (2% to 7%),. For the same molecule, the Increased liver enzymes (in vivo) was “Hepatic: Increased liver enzymes (1% to 6%)”, the Indigestion (in vivo) was 11%), Increased appetite (2% to 12%), Indigestion (2% to 7%), and the Insomnia (in vivo) was “Insomnia (8% to 12%), Lethargy (1% to 5%), Somnolence (18% to”. For the same molecule, the Lethargy (in vivo) was “Insomnia (8% to 12%), Lethargy (1% to 5%), Somnolence (18% to”, the Nasal congestion (in vivo) was “Respiratory: Nasal congestion (3% to 5%), Pharyngitis (4% to 6%)” and the Nausea (in vivo) was “Nausea (Pediatric, 6% to 10%), Vomiting (Pediatric, 7% to 8%),”. The Neutropenia (in vivo) was “Hematologic: Agranulocytosis, Leukopenia, Neutropenia (0.3% to”, the Orthostatic hypotension (in vivo) was “Orthostatic hypotension (Up to 7%), Tachycardia (Up to 6%)” and the Pain (in vivo) was “Other: Fatigue (3% to 14%), Pain (7%)”. For the same molecule, the Pharyngitis (in vivo) was “Respiratory: Nasal congestion (3% to 5%), Pharyngitis (4% to 6%)”, the “Prolonged QT interval” value (in vivo) was “Cardiovascular: Prolonged QT interval (0.1% to less than 1%),” and the Seizure (in vivo) was “Neurologic: Seizure (0.05% to 0.5%), Tardive dyskinesia”. The “Serious side effect, Cardiovascular” value (in vivo) was “Sudden cardiac death, Syncope (0.3% to 1%)”, the “Serious side effect, Endocrine metabolic” value (in vivo) was “Endocrine metabolic: Diabetic ketoacidosis” and the “Serious side effect, Gastrointestinal” value (in vivo) was “Gastrointestinal: Pancreatitis”. For the same molecule, the “Serious side effect, Hematologic” value (in vivo) was “Hematologic: Agranulocytosis, Leukopenia, Neutropenia (0.3% to”, the “Serious side effect, Immunologic” value (in vivo) was “Immunologic: Anaphylaxis” and the “Serious side effect, Neurologic” value (in vivo) was “Neurologic: Seizure (0.05% to 0.5%), Tardive dyskinesia”. For the same molecule, the “Serious side effect, Other” value (in vivo) was “Other: Neuroleptic malignant syndrome”, the “Serious side effect, Psychiatric” value (in vivo) was “Psychiatric: Suicidal thoughts” and the “Serious side effect, Reproductive” value (in vivo) was “Reproductive: Priapism”. For the same molecule, the Serum cholesterol raised (in vivo) was “Endocrine metabolic: Serum cholesterol raised (7% to 18%), Serum”, the Serum triglycerides raised (in vivo) was “triglycerides raised (8% to 28%), Weight gain (3% to 28%)” and the Somnolence (in vivo) was “Insomnia (8% to 12%), Lethargy (1% to 5%), Somnolence (18% to”. For the same molecule, the Syncope (in vivo) was “Sudden cardiac death, Syncope (0.3% to 1%)”, the Tachycardia (in vivo) was “Orthostatic hypotension (Up to 7%), Tachycardia (Up to 6%)” and the Tremor (in vivo) was 57%), Tremor (2% to 8%). For the same molecule, the Vomiting (in vivo) was “Nausea (Pediatric, 6% to 10%), Vomiting (Pediatric, 7% to 8%),”, the Weight gain (in vivo) was “triglycerides raised (8% to 28%), Weight gain (3% to 28%)” and the Xerostomia (in vivo) was “Xerostomia (Adult, 9% to 44%; pediatric, 4% to 10%)”.

For `CC#CCn1c(N2CCC[C@@H](N)C2)nc2c1c(=O)n(Cc1nc(C)c3ccccc3n1)c(=O)n2C` [Tradjenta], the Hypoglycemia (combination therapy) is listed as “combination therapy, 22.9%)”, the Nasopharyngitis (in vivo) is listed as “Respiratory: Nasopharyngitis (7%)” and the Hypoglycemia (monotherapy) is listed as “Endocrine metabolic: Hypoglycemia (monotherapy, 6.6%;”.

For `N#Cc1ccc2[nH]cc(CCCCN3CCN(c4ccc5oc(C(N)=O)cc5c4)CC3)c2c1` [Viibryd], the Serotonin syndrome (in vivo) is listed as 0.1% and the “Serious side effect, Other” value (listed without frequency) is listed as “Drug withdrawal”.

In the case of `CCCCCCOC(=O)NC(=N)c1ccc(NCc2nc3cc(C(=O)N(CCC(=O)OCC)c4ccccn4)ccc3n2C)cc1` [Pradaxa], the Gastroesophageal reflux disease (Atrial fibrillation) is listed as “disease (Atrial fibrillation, 5.5%), Gastrointestinal hemorrhage”, the Indigestion (DVT and pulmonary embolism) is listed as “pulmonary embolism, 7.5%)” and the Intracranial hemorrhage (DVT and pulmonary embolism) is listed as 0.1%. For the same molecule, the Bleeding (DVT and pulmonary embolism prophylaxis) was 10.5%, the “Serious side effect, Hematologic” value (listed without frequency) was “Thrombosis” and the “Serious side effect, Immunologic” value (listed without frequency) was “Immunologic: Anaphylaxis”. For the same molecule, the “Serious side effect, Respiratory” value (listed without frequency) was “Respiratory: Bleeding, Alveolar”, the Bleeding [1] was 16.6% and the “Bleeding, Major” value [1] was 3.3%. For the same molecule, the Gastrointestinal hemorrhage [1] was 6.1%, the “Gastrointestinal hemorrhage, Major” value [1] was 1.6%) and the Intracranial hemorrhage [1] was “(nonvalvular atrial fibrillation, 0.3%; DVT and pulmonary”. The Myocardial infarction [1] was 0.7%.

For `NS(=O)(=O)c1cc(C(=O)O)c(NCc2ccco2)cc1Cl` [Furosemide (Lasix)], the “Hyperuricemia (incidence)” value (in vivo) is listed as “Endocrine metabolic: Hyperuricemia (40%), Hypomagnesemia”.

In the case of `COC(=O)[C@H](c1ccccc1Cl)N1CCc2sccc2C1` [Clopidogrel (Plavix ®)], the Agranulocytosis (in vivo) is given as “Hematologic: Agranulocytosis (Less than 1%), Aplastic anemia”, the Aplastic anemia (in vivo) is given as “(less then 1%), Bleeding, Major (0.8% to 3.7%), Pancytopenia” and the “Bleeding, Major” value (in vivo) is given as “(less then 1%), Bleeding, Major (0.8% to 3.7%), Pancytopenia”. The “Bleeding, Non-major” value (in vivo) was “Hematologic: Bleeding, Non-major (3.6% to 5.1%)”, the Gastrointestinal hemorrhage (in vivo) was “Gastrointestinal: Colitis, Gastrointestinal hemorrhage (2%; 2.7%” and the Intraocular hemorrhage (in vivo) was “Ophthalmic: Intraocular hemorrhage (0.05%)”.

For `CN[C@H]1CC[C@@H](c2ccc(Cl)c(Cl)c2)c2ccccc21` [Sertraline (Zoloft)], the Abnormal ejaculation (in vivo) is given as “Reproductive: Abnormal ejaculation (7% to 19%), Reduced libido”, the Constipation (in vivo) is given as “Gastrointestinal: Constipation (3% to 8%), Diarrhea (13% to 24%),” and the Diarrhea (in vivo) is given as “Gastrointestinal: Constipation (3% to 8%), Diarrhea (13% to 24%),”. The Dizziness (in vivo) was “Neurologic: Dizziness (6% to 17%), Headache (25%), Insomnia”, the Fatigue (in vivo) was “Other: Fatigue (10% to 16%)” and the Headache (in vivo) was “Neurologic: Dizziness (6% to 17%), Headache (25%), Insomnia”. The Indigestion (in vivo) was “Indigestion (6% to 13%), Nausea (13% to 30%), Nausea and”, the Insomnia (in vivo) was “(12% to 28%), Somnolence (2% to 15%), Tremor (5% to 11%)” and the Nausea (in vivo) was “Indigestion (6% to 13%), Nausea (13% to 30%), Nausea and”. The Nausea and vomiting (in vivo) was “vomiting (2% to 30%)”, the Reduced libido (in vivo) was “(up to 11%)” and the Somnolence (in vivo) was “(12% to 28%), Somnolence (2% to 15%), Tremor (5% to 11%)”. The Tremor (in vivo) was “(12% to 28%), Somnolence (2% to 15%), Tremor (5% to 11%)”.

For `CC1(C)O[C@@H]2[C@@H](CO[C@@]3(COS(N)(=O)=O)OC(C)(C)O[C@@H]23)O1` [Topiramate (Topamax)], the Confusion (in vivo) is listed as “Neurologic: Confusion (3% to 11%), Dizziness (4% to 25%),”, the Dizziness (in vivo) is listed as “Neurologic: Confusion (3% to 11%), Dizziness (4% to 25%),” and the Fatigue (in vivo) is listed as “Other: Fatigue (6% to 16%), Fever (1% to 12%)”. For the same molecule, the Fever (in vivo) was “Other: Fatigue (6% to 16%), Fever (1% to 12%)”, the Flushing (in vivo) was “Dermatologic: Flushing (pediatrics, 5%)” and the Hyperammonemia (in vivo) was “Endocrine metabolic: Hyperammonemia (Adolescents, 26%),”. The Impaired cognition (in vivo) was “Impaired cognition (2% to 7%), Impaired psychomotor”, the Impaired psychomotor performance (in vivo) was “performance (2% to 13%), Memory impairment (3% to 12%),” and the Infectious disease (in vivo) was “Immunologic: Infectious disease (2% to 8%)”. The Memory impairment (in vivo) was “performance (2% to 13%), Memory impairment (3% to 12%),”, the Nephrolithiasis (in vivo) was “Renal: Nephrolithiasis (adults, 1% to 3%)” and the “Serious side effect, Endocrine metabolic” value (in vivo) was “Hypohidrosis, Increased body temperature, Metabolic acidosis”. For the same molecule, the “Serious side effect, Hepatic” value (in vivo) was “Hepatic: Liver failure”, the “Serious side effect, Neurologic” value (in vivo) was “Neurologic: Drug-induced encephalopathy” and the “Serious side effect, Ophthalmic” value (in vivo) was “Ophthalmic: Glaucoma, Myopia, Visual field defect (epilepsy,”. The “Serious side effect, Psychiatric” value (in vivo) was “Psychiatric: Suicidal thoughts”, the Somnolence (in vivo) was 10%), Somnolence (6% to 29%) and the Visual field defect (in vivo) was 0.1% to 1%). The Weight decreased (in vivo) was “(4% to 21%)”.

In the case of `Clc1ccccc1CN1CCc2sccc2C1` [Ticlopidine], the Neutropenia (in vivo) is given as 2.4%.

For `O=C(O)Cc1ccccc1Nc1c(Cl)cccc1Cl` [Zorvolex], the Constipation (in vivo) is listed as “Gastrointestinal: Constipation (5% to 8%), Diarrhea (6%), Nausea”, the Diarrhea (in vivo) is listed as “Gastrointestinal: Constipation (5% to 8%), Diarrhea (6%), Nausea” and the Headache (in vivo) is listed as “Neurologic: Headache (4% to 8%)”. For the same molecule, the Nasopharyngitis (in vivo) was “Respiratory: Nasopharyngitis (6%), Sinusitis (3% to 5%), Upper”, the Nausea (in vivo) was “(6% to 7%)” and the “Serious side effect, Cardiovascular” value (in vivo) was “Cardiovascular: Myocardial infarction, Thrombosis”. The “Serious side effect, Gastrointestinal” value (in vivo) was “Gastrointestinal: Gastrointestinal hemorrhage, Gastrointestinal”, the “Serious side effect, Immunologic” value (in vivo) was “Immunologic: Anaphylactoid reaction” and the “Serious side effect, Neurologic” value (in vivo) was “Neurologic: Cerebrovascular accident”. For the same molecule, the “Serious side effect, Renal” value (in vivo) was “Renal: Acute renal failure”, the “Serious side effect, Respiratory” value (in vivo) was “Respiratory: Bronchospasm” and the Sinusitis (in vivo) was “Respiratory: Nasopharyngitis (6%), Sinusitis (3% to 5%), Upper”. For the same molecule, the Upper respiratory infection (in vivo) was “respiratory infection (8%)” and the “Urinary tract infectious disease” value (in vivo) was “Renal: Urinary tract infectious disease (7%)”.
